Test results taken from US9381349B2, “Apparatus for treating cerebral neurovascular disorders including headaches by neural stimulation” (priority 1997, dated 2016).

System: recurring migraine
Assay: Dorsonasal ropivacaine therapy in recurring migraine: frequency and severity of subsequent episodes (Example 3)
Assay type: in vivo, human
Text: The following studies relate to the methods of decreasing the frequency and severity of CNvD episodes described herein, and involved three patients.
A patient, herein designated “patient 3-1” was afflicted with recurring severe migraine, wherein acute migraine episodes were associated with nausea and visual changes. Patient 3-1 generally rated the severity of head pain associated with acute migraine episodes in the range from five to eight using the pain scale described herein. Patient 3-1 experienced, on average, about one acute migraine episode per week prior to beginning dorsonasal ropivacaine therapy. In addition, patient 3-1 also usually experienced about one severe acute migraine episode per month, associated with menses, wherein the severity of head pain was from eight to ten using the pain scale described herein.
Ropivacaine was dorsonasally administered to patient 3-1 using the cotton swab technique described herein. The patient has consistently experienced relief from all of the symptoms of their CNvD episodes within 3 to 5 minutes following administration of ropivacaine, regardless of whether the episodes are associated with menses.
A person, herein designated, “patient 3-2,” was afflicted with recurring migraines. […] Head pain associated with the patient's acute migraine episodes is typically preceded by visual changes which they describe as a curtain-like wave of scotomata moving from left to right until they are unable to see. The patient then becomes disoriented with respect to time and place and must sit or lay down. Following these prodromal symptoms, a severe headache, rated 10 on the pain scale described herein, begins and typically endures for 45 to 60 minutes. The patient remains completely debilitated for the duration of the headache, unable to move about or walk. As the headache subsides, the patient's vision returns, and the patient is left feeling exhausted, as if they had not slept the night before.
A person, herein designated, “patient 3-3,” experienced about 3 to 5 recurring migraine episodes per week prior to beginning dorsonasal ropivacaine therapy. The initial severity of these headaches was reported to be 10, using the pain scale described herein. When ropivacaine was administered, using the saturated swab method described herein, to patient 3-3 during a headache episode, the patient reported a decrease in head pain from a rating of 10 to a rating of 0 or 1 within 10 minutes following ropivacaine administration. Furthermore, after three months of dorsonasal ropivacaine treatment, patient 3-3 reported that the frequency of their headache episodes had decreased to about 1 to 2 times weekly and that the initial severity of their headaches was in the range from about 7 to about 8, rather than 10.

[1] = patient 3-1, about three or four months after initiation

In the case of `CCCN1CCCC[C@H]1C(=O)Nc1c(C)cccc1C` [Ropivacaine, ropivacaine], the “Frequency of subsequent acute migraine episodes” value [1] is reported as “decrease in the frequency with which acute migraine episodes not associated with menses occurred”, the “Initial severity of subsequent acute migraine episodes” value [1] is reported as “decrease in the initial severity of acute migraine episodes not associated with menses” and the “Frequency of headaches after therapy” value (patient 3-2, after four to six months of therapy) is reported as “approximately one headache every two months or longer”. The “Initial headache pain (prior to administration) after therapy” value (patient 3-2, after four to six months of therapy, previously about 10) was no more than 2, the “Time to complete resolution of headache” value (patient 3-2, nasal spray) was “completely resolved by fifteen minutes” and the “Headache pain intensity after administration” value (patient 3-2, nasal spray, from 10, within one to two minutes, pain scale 0-10) was 2-3.
